Data taken from ChEMBL document CHEMBL1201862, “PubChem BioAssay data set” (2004).
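Step 1: Grow cells in 96-well plates. Step 2: Expose to compound for 48 hours at 5 concentrations. Step 3: Interpolate endpoints linearly; if unreached, use highest concentration. GI50 is the concentration that inhibits growth by half.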 Active and inactive are the calls of the source. No stated cut-off is given here; in the data, active = GI50 up to about 1.1 µM and inactive = higher.

Experiments:
Assay in all cases: inhibition of tumour cell growth, NCI panel, 48 h
MDA-MB-435 = tested on: MDA-MB-435
SF-268 = tested on: SF-268
UACC-257 = tested on: UACC-257
Hs-578T = tested on: Hs-578T
HOP-62 = tested on: HOP-62
MDA-MB-231 = tested on: MDA-MB-231
SN12C = tested on: SN12C
OVCAR-3 = tested on: OVCAR-3
HL-60 = tested on: HL-60
SNB-75 = tested on: SNB-75
RXF 393 = tested on: RXF 393
PC-3 = tested on: PC-3
Malme-3M = tested on: Malme-3M
A549 = tested on: A549
SK-MEL-28 = tested on: SK-MEL-28
HOP-92 = tested on: HOP-92
786-0 = tested on: 786-0
LOX IMVI = tested on: LOX IMVI
T47D = tested on: T47D
RPMI-8226 = tested on: RPMI-8226

Measured: GI50

C1COCCN1.CN(C)c1ccc(-c2c(C#N)c(N)nc(S)c2C#N)cc1
inactive: MDA-MB-435 83.4 µM | SF-268 > 100 µM | UACC-257 82.4 µM | Hs-578T 4.57 µM | HOP-62 87.3 µM | MDA-MB-231 34.4 µM | SN12C 66.2 µM | OVCAR-3 > 100 µM | HL-60 > 100 µM | SNB-75 34.3 µM | RXF 393 23.5 µM | PC-3 30.5 µM | Malme-3M > 100 µM | A549 > 100 µM | SK-MEL-28 82.6 µM | HOP-92 21.8 µM | 786-0 > 100 µM | LOX IMVI 80.2 µM

COCOc1cc(OC)c(Br)cc1C/C(=N/O)C(=O)OC
inactive: MDA-MB-435 29.6 µM | SF-268 39.8 µM | UACC-257 46.6 µM | Hs-578T 15.9 µM | HOP-62 67.3 µM | MDA-MB-231 42.2 µM | SN12C > 100 µM | OVCAR-3 43.1 µM | HL-60 52.7 µM | SNB-75 7.6 µM | T47D 15.8 µM | RXF 393 28.5 µM | PC-3 42.9 µM | Malme-3M 25.5 µM | A549 91.6 µM | SK-MEL-28 > 100 µM | 786-0 > 100 µM | LOX IMVI 73.5 µM

[O-][N+]1=C2CCC/C(=N/O)C2(O)C2CCCCC21N1CCOCC1 (configuration not stated)
inactive: MDA-MB-435 > 100 µM | SF-268 > 100 µM | UACC-257 > 100 µM | Hs-578T > 100 µM | HOP-62 > 100 µM | MDA-MB-231 > 100 µM | SN12C > 100 µM | OVCAR-3 > 100 µM | SNB-75 > 100 µM | T47D > 100 µM | RXF 393 8.02 µM | PC-3 > 100 µM | Malme-3M > 100 µM | A549 > 100 µM | SK-MEL-28 > 100 µM | 786-0 > 100 µM | LOX IMVI > 100 µM

CCOC(=O)CCC(NC(=O)Cc1ccc(Oc2nc3ccccc3nc2-c2ccccc2)cc1)C(=O)OCC (configuration not stated)
inactive: MDA-MB-435 > 100 µM | SF-268 27 µM | UACC-257 > 100 µM | Hs-578T 34.8 µM | HOP-62 45.6 µM | MDA-MB-231 > 100 µM | SN12C > 100 µM | OVCAR-3 96.8 µM | HL-60 > 100 µM | SNB-75 37.8 µM | RPMI-8226 > 100 µM | T47D 24.9 µM | RXF 393 37.6 µM | PC-3 41.9 µM | Malme-3M > 100 µM | A549 > 100 µM | SK-MEL-28 > 100 µM | 786-0 35.5 µM

Cc1ccc(N/C(=C(/C(Cl)=C(Cl)Cl)[N+](=O)[O-])n2nnc3ccccc32)cc1
inactive: MDA-MB-435 20.1 µM | SF-268 18.8 µM | UACC-257 26 µM | Hs-578T 25.8 µM | HOP-62 18.2 µM | SN12C 20.4 µM | OVCAR-3 16.7 µM | SNB-75 18.8 µM | RPMI-8226 20.2 µM | T47D 22.5 µM | PC-3 17.5 µM | Malme-3M 16.1 µM | A549 19.5 µM | SK-MEL-28 17.5 µM | 786-0 20.8 µM

CC(O)CCCOC(c1ccccc1)(c1ccccc1)c1ccccc1 (configuration not stated)
inactive: MDA-MB-435 16.5 µM | SF-268 15.9 µM | UACC-257 16.3 µM | Hs-578T 18.7 µM | HOP-62 17.3 µM | MDA-MB-231 17.3 µM | SN12C 16.7 µM | OVCAR-3 14.2 µM | HL-60 17.6 µM | SNB-75 12.6 µM | RPMI-8226 15.2 µM | RXF 393 14.7 µM | PC-3 11.5 µM | Malme-3M 14.5 µM | A549 13.8 µM | SK-MEL-28 16.4 µM | HOP-92 12.6 µM | 786-0 16.5 µM | LOX IMVI 15.2 µM

CC1(F)C=CC(=O)C=C1
inactive: MDA-MB-435 35.7 µM | SF-268 > 100 µM | UACC-257 71.8 µM | Hs-578T > 100 µM | HOP-62 > 100 µM | MDA-MB-231 40.1 µM | SN12C > 100 µM | OVCAR-3 > 100 µM | HL-60 27.6 µM | SNB-75 > 100 µM | RPMI-8226 29.4 µM | PC-3 69.7 µM | Malme-3M 18.4 µM | A549 > 100 µM | SK-MEL-28 > 100 µM | HOP-92 30.5 µM | 786-0 17 µM | LOX IMVI 16.3 µM

CCOC(=O)N1c2ccccc2C(C)=CC(C)C1C (configuration not stated)
inactive: MDA-MB-435 3.37 µM | SF-268 38 µM | UACC-257 12.7 µM | Hs-578T 35.6 µM | HOP-62 37.6 µM | MDA-MB-231 22.9 µM | SN12C 40.7 µM | OVCAR-3 16.7 µM | HL-60 27.2 µM | SNB-75 19.1 µM | RPMI-8226 56.8 µM | T47D 52.1 µM | RXF 393 11.3 µM | PC-3 55.8 µM | Malme-3M 33.9 µM | A549 22.6 µM | SK-MEL-28 35.9 µM | 786-0 20.6 µM | LOX IMVI 7.53 µM
